From US20230111310A1, “CARBOXYLIC ACID DERIVATIVE-SUBSTITUTED IMINO ARYL COMPOUND, PREPARATION METHOD THEREFOR, HERBICIDAL COMPOSITION AND USE THEREOF” (Qingdao Kingagroot Chemical Compound Co., Ltd., priority 2020, published 2023)

Columns and labels:
Assay in all cases: Weeding effect in post-emergence stage
Type in all cases: in vivo
Eleusine indica = details: for Weeding effect in post-emergence stage, Eleusine indica: level of fresh weight growth control rate; for Weeding effect in post-emergence stage, Eleusine indica (level): fresh weight control rate level
Outline: (§1)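 Pot-grown weeds were sprayed at the 2-3 leaf stage, 2 weeks after sowing, with compound in acetone plus Tween 80 and 1.5 liter/ha methyl oleate emulsifiable concentrate, diluted in water. Doses were 500, 250, 125, 60, 30, 15, 7.5 g/ha. Growth control was scored after 3 weeks in greenhouse; mean of three replicates.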

Alopecurus japonicus = details: for Weeding effect in post-emergence stage, Alopecurus japonicus: level of fresh weight growth control rate; for Weeding effect in post-emergence stage, Alopecurus japonicus (level): fresh weight control rate level
Outline: as §1

Digitaria sanguinalis = details: for Weeding effect in post-emergence stage, Digitaria sanguinalis: level of fresh weight growth control rate; for Weeding effect in post-emergence stage, Digitaria sanguinalis (level): fresh weight control rate level
Outline: as §1

Abutilon theophrasti = details: for Weeding effect in post-emergence stage, Abutilon theophrasti: level of fresh weight growth control rate; for Weeding effect in post-emergence stage, Abutilon theophrasti (level): fresh weight control rate level
Outline: as §1

Setaria viridis = details: for Weeding effect in post-emergence stage, Setaria viridis: level of fresh weight growth control rate; for Weeding effect in post-emergence stage, Setaria viridis (level): fresh weight control rate level
Outline: as §1

Echinochloa crusgalli = details: for Weeding effect in post-emergence stage, Echinochloa crusgalli: level of fresh weight growth control rate; for Weeding effect in post-emergence stage, Echinochloa crusgalli (level): fresh weight control rate level
Outline: as §1

## CC(=O)COC(=O)[C@@H](C)O/N=C/c1cc(-n2c(=O)cc(C(F)(F)F)n(C)c2=O)c(F)cc1Cl [238(R)]
Eleusine indica; Dose 15 g/ha
  Weeding effect in post-emergence stage, Eleusine indica: 5 (Level 5: growth control rate is above 85%)
Alopecurus japonicus; Dose 15 g/ha
  Weeding effect in post-emergence stage, Alopecurus japonicus: 5 (Level 5: growth control rate is above 85%)
Digitaria sanguinalis; Dose 15 g/ha
  Weeding effect in post-emergence stage, Digitaria sanguinalis: 5 (Level 5: growth control rate is above 85%)
Abutilon theophrasti; Dose 15 g/ha
  Weeding effect in post-emergence stage, Abutilon theophrasti: 5 (Level 5: growth control rate is above 85%)
Setaria viridis; Dose 15 g/ha
  Weeding effect in post-emergence stage, Setaria viridis: 5 (Level 5: growth control rate is above 85%)
Echinochloa crusgalli; Dose 15 g/ha
  Weeding effect in post-emergence stage, Echinochloa crusgalli: 5 (Level 5: growth control rate is above 85%)

## C[C@@H](O/N=C/c1cc(-n2c(=O)cc(C(F)(F)F)n(C)c2=O)c(F)cc1Cl)C(=O)O/N=C/c1ccccc1 [255(R)]
Eleusine indica; Dose 30 g/ha
  Weeding effect in post-emergence stage, Eleusine indica: 5 (Level 5: growth control rate is above 85%)
Alopecurus japonicus; Dose 30 g/ha
  Weeding effect in post-emergence stage, Alopecurus japonicus: 5 (Level 5: growth control rate is above 85%)
Digitaria sanguinalis; Dose 30 g/ha
  Weeding effect in post-emergence stage, Digitaria sanguinalis: 5 (Level 5: growth control rate is above 85%)
Abutilon theophrasti; Dose 30 g/ha
  Weeding effect in post-emergence stage, Abutilon theophrasti: 5 (Level 5: growth control rate is above 85%)
Setaria viridis; Dose 30 g/ha
  Weeding effect in post-emergence stage, Setaria viridis: 5 (Level 5: growth control rate is above 85%)
Echinochloa crusgalli; Dose 30 g/ha
  Weeding effect in post-emergence stage, Echinochloa crusgalli: 5 (Level 5: growth control rate is above 85%)

## COC(=O)C(CC(C)C)O/N=C/c1cc(-n2c(=O)cc(C(F)(F)F)n(C)c2=O)c(F)cc1Cl (racemic) [Compound 455]
Eleusine indica; Dose 15 g/ha
  Weeding effect in post-emergence stage, Eleusine indica (level): 5 (Level 5: growth control rate is above 85%)
Alopecurus japonicus; Dose 15 g/ha
  Weeding effect in post-emergence stage, Alopecurus japonicus (level): 5 (Level 5: growth control rate is above 85%)
Digitaria sanguinalis; Dose 15 g/ha
  Weeding effect in post-emergence stage, Digitaria sanguinalis (level): 5 (Level 5: growth control rate is above 85%)
Abutilon theophrasti; Dose 15 g/ha
  Weeding effect in post-emergence stage, Abutilon theophrasti (level): 5 (Level 5: growth control rate is above 85%)
Setaria viridis; Dose 15 g/ha
  Weeding effect in post-emergence stage, Setaria viridis (level): 5 (Level 5: growth control rate is above 85%)
Echinochloa crusgalli; Dose 15 g/ha
  Weeding effect in post-emergence stage, Echinochloa crusgalli (level): 5 (Level 5: growth control rate is above 85%)

## C[C@@H](O/N=C/c1cc(-n2c(=O)cc(C(F)(F)F)n(C)c2=O)c(F)cc1Cl)C(=O)ON1C(=O)CCC1=O [263(R)]
Eleusine indica; Dose 60 g/ha
  Weeding effect in post-emergence stage, Eleusine indica: 5 (Level 5: growth control rate is above 85%)
Alopecurus japonicus; Dose 60 g/ha
  Weeding effect in post-emergence stage, Alopecurus japonicus: 5 (Level 5: growth control rate is above 85%)
Digitaria sanguinalis; Dose 60 g/ha
  Weeding effect in post-emergence stage, Digitaria sanguinalis: 5 (Level 5: growth control rate is above 85%)
Abutilon theophrasti; Dose 60 g/ha
  Weeding effect in post-emergence stage, Abutilon theophrasti: 5 (Level 5: growth control rate is above 85%)
Setaria viridis; Dose 60 g/ha
  Weeding effect in post-emergence stage, Setaria viridis: 5 (Level 5: growth control rate is above 85%)
Echinochloa crusgalli; Dose 60 g/ha
  Weeding effect in post-emergence stage, Echinochloa crusgalli: 5 (Level 5: growth control rate is above 85%)

## C#CCOC(=O)C(C)O/N=C/c1cc(-n2c(=O)cc(C(F)(F)F)n(C)c2=O)c(F)cc1Cl (racemic) [Compound 212]
Eleusine indica; Dose 15 g/ha
  Weeding effect in post-emergence stage, Eleusine indica: 5 (Level 5: growth control rate is above 85%)
Alopecurus japonicus; Dose 15 g/ha
  Weeding effect in post-emergence stage, Alopecurus japonicus: 5 (Level 5: growth control rate is above 85%)
Digitaria sanguinalis; Dose 15 g/ha
  Weeding effect in post-emergence stage, Digitaria sanguinalis: 5 (Level 5: growth control rate is above 85%)
Abutilon theophrasti; Dose 15 g/ha
  Weeding effect in post-emergence stage, Abutilon theophrasti: 5 (Level 5: growth control rate is above 85%)
Setaria viridis; Dose 15 g/ha
  Weeding effect in post-emergence stage, Setaria viridis: 5 (Level 5: growth control rate is above 85%)
Echinochloa crusgalli; Dose 15 g/ha
  Weeding effect in post-emergence stage, Echinochloa crusgalli: 5 (Level 5: growth control rate is above 85%)

## COC(=O)[C@@H](C)O/N=C/c1cc(-n2c(=O)cc(C(F)(F)F)n(C)c2=S)c(F)cc1C#N [396(R)]
Eleusine indica; Dose 60 g/ha
  Weeding effect in post-emergence stage, Eleusine indica (level): 5 (Level 5: growth control rate is above 85%)
Alopecurus japonicus; Dose 60 g/ha
  Weeding effect in post-emergence stage, Alopecurus japonicus (level): 5 (Level 5: growth control rate is above 85%)
Digitaria sanguinalis; Dose 60 g/ha
  Weeding effect in post-emergence stage, Digitaria sanguinalis (level): 5 (Level 5: growth control rate is above 85%)
Abutilon theophrasti; Dose 60 g/ha
  Weeding effect in post-emergence stage, Abutilon theophrasti (level): 5 (Level 5: growth control rate is above 85%)
Setaria viridis; Dose 60 g/ha
  Weeding effect in post-emergence stage, Setaria viridis (level): 5 (Level 5: growth control rate is above 85%)
Echinochloa crusgalli; Dose 60 g/ha
  Weeding effect in post-emergence stage, Echinochloa crusgalli (level): 5 (Level 5: growth control rate is above 85%)

## CC(O/N=C/c1cc(-n2c(=O)cc(C(F)(F)F)n(C)c2=O)c(F)cc1Cl)C(=O)OCC(F)(F)F (racemic) [Compound 218]
Eleusine indica; Dose 15 g/ha
  Weeding effect in post-emergence stage, Eleusine indica: 5 (Level 5: growth control rate is above 85%)
Alopecurus japonicus; Dose 15 g/ha
  Weeding effect in post-emergence stage, Alopecurus japonicus: 5 (Level 5: growth control rate is above 85%)
Digitaria sanguinalis; Dose 15 g/ha
  Weeding effect in post-emergence stage, Digitaria sanguinalis: 5 (Level 5: growth control rate is above 85%)
Abutilon theophrasti; Dose 15 g/ha
  Weeding effect in post-emergence stage, Abutilon theophrasti: 5 (Level 5: growth control rate is above 85%)
Setaria viridis; Dose 15 g/ha
  Weeding effect in post-emergence stage, Setaria viridis: 5 (Level 5: growth control rate is above 85%)
Echinochloa crusgalli; Dose 15 g/ha
  Weeding effect in post-emergence stage, Echinochloa crusgalli: 5 (Level 5: growth control rate is above 85%)
